For test [1], the target named is human thrombocytes. The test is described as follows: Inhibition of binding of ^3 H-BIBU 52 to human thrombocytes (table: Fibrinogen binding test). Particulars: ^3 H-BIBU 52 (5 nM), human thrombocytes in plasma, ambient temperature, 20 minutes. On the procedure:
1. Inhibition of binding of ^3 H-BIBU 52 to human thrombocytes:
A suspension of human thrombocytes in plasma is incubated with ^3 H-BIBU 52 [=(3S,5S)-5-[(4'-amidino-4-biphenylyl)oxymethyl]-3-[(carboxyl)methyl]-2-pyrrolidinone[3-^3 H-4-biphenylyl]] (see DE-A-4,214,245), which replaces the ^125 I fibrinogen ligand known from the literature, and various concentrations of the substance to be tested. The free and bound ligand is separated by centrifuging and quantified by scintillation counting. The inhibition of ^3 H-BIBU 52 binding by the test substance is determined from the measurements obtained.
In order to do this, donor blood is taken from an anticubital vein and anticoagulated with trisodium citrate (final concentration 13 mM). The blood is centrifuged for 10 minutes at 170×g and the supernatant platelet-rich plasma (PRP) is removed. The remaining blood is vigorously centrifuged once more in order to obtain plasma. The PRP is diluted 1:10 with autologous plasma. 750 μl are incubated with 50 μl of physiological saline solution, 100 μl of test substance solution, 50 μl of ^14 C-sucrose (3,700 Bq) and 50 μl of ^3 H-BIBU 52 (final concentration: 5 nM) at ambient temperature for 20 minutes. In order to measure the non-specific binding, 5 μl of BIBU 52 (final concentration: 30 μM) are used instead of the test substance. The samples are centrifuged for 20 seconds at 10,000×g and the supernatant is poured off. 100 μl thereof are counted in order to determine the amount of free ligand. The pellet is dissolved in 500 μl of 0.2N NaOH, 450 μl are mixed with 2 ml of scintillator and 25 μl of 5N HCl and measured. The residual plasma remaining in the pellet is determined from the ^14 C-content and the bound ligand is determined from the ^3 H-measurement. After the non-specific binding has been deducted, the pellet activity is plotted against the concentration of the test substance and the concentration for a 50% inhibition of binding is determined.

Test [2] relates to thrombocyte aggregation in platelet-rich plasma taken from healthy volunteers. The test is described as follows: Antithrombotic activity: inhibition of collagen-induced platelet aggregation (Born and Cross) in platelet-rich plasma. The test is classed as cell-based. Particulars: Homo sapiens, 10 minutes preincubation at 37° C. On the procedure: 2. Antithrombotic activity
The thrombocyte aggregation is measured using the method of Born and Cross (J. Physiol. 170: 397 (1964)) in platelet-rich plasma taken from healthy volunteers. To inhibit coagulation, the blood is mixed with 3.14% sodium citrate in a volume ratio of 1:10.
Collagen-induced aggregation
The pattern of the decrease in optical density of the platelet suspension is photometrically measured and recorded after the addition of the aggregation-triggering substance. The rate of aggregation is determined from the angle of inclination of the density curve. The point on the curve where there is maximum light transmittance is used to calculate the optical density.
The concentration of collagen used is as small as possible but sufficient to produce an irreversible reaction curve. Standard commercial collagen produced by Hormonchemie of Munich is used.
Before the addition of the collagen the plasma is incubated for 10 minutes with the substance at 37° C.
From the measurements obtained the EC50 is determined, which indicates the concentration giving a 50% change in the optical density in terms of the inhibition of aggregation.

The values that follow come from patent US5700801A, “Piperazine derivatives, pharmaceutical compositions containing these compounds, their use and processes for preparing them” (Karl Thomae, GmbH, priority 1994, dated 1997).

Where a name gives a salt, the structure may show the parent alone.

The IC50 is the concentration that inhibits the measured activity by half. Higher therefore signals weaker potency in that assay. Broadly, the EC50 is the concentration that produces a half-maximal response. A low value points to an effect from little substance. Compound `O=C(CC(=O)N1CCN(c2ccncc2)CC1)N[C@H]1CC[C@H](C(=O)O)CC1` [5(7), [4-trans-[4-(4-Pyridyl)-piperazin-1-yl]malonylamino]cyclohexylcarboxylic a cid hydrochloride] showed an IC50 in test [1] of 0.23 nM. The same compound showed an EC50 in test [2] of 0.25 nM.

The compound `O=C(O)CC[C@H]1CC[C@H](NC(=O)N2CCN(c3ccncc3)CC2)CC1` [5(6), 3-[4-trans-[4-(4-Pyridyl)-piperazin-1-yl]carbonylamino]cyclohexylpropionicacid hydrochloride] gave a half-inhibitory concentration (IC50) in test [1] of 0.25 nM. The EC50 in test [2] is 0.16 nM.

In test [1], `O=C(O)CCN1CCC(NC(=O)N2CCN(c3ccncc3)CC2)CC1` [5(8), 3-[4-[4-(4-pyridyl)-piperazin-1-yl]carbonylamino]piperidinopropionic acid dihydrochloride] had an IC50 of 0.41 nM. For the same compound, in test [2], the EC50 was 0.6 nM.

Consider `O=C(O)CN1CCC(NC(=O)N2CCN(c3ccncc3)CC2)CC1` [5(9), [4-[4-(4-Pyridyl)-piperazin-1-yl]carbonylamino]piperidino-acetic acid], for which the IC50 in test [1] stood at 0.43 nM. The EC50 in test [2] was 4.4 nM.

In turn, `COC(=O)[C@H]1CC[C@H](NC(=O)CCN2CCN(c3ccncc3)CC2)CC1` [Example 1, Methyl[4-trans-[3-[4-(4-pyridyl)-piperazin-1-yl]propionyl]-amino]cyclohexane carboxylate] had an IC50 in test [1] greater than 100 nM. The compound further had an EC50 in test [2] of 3.32 nM.

The compound `O=C(CCN1CCN(c2ccncc2)CC1)N[C@H]1CC[C@H](C(=O)O)CC1` [Example 5, [4-trans-[3-[4-(4-Pyridyl)-piperazin-1-yl]propionyl]amino]-cyclohexane-carboxylic acid dihydrochloride] yielded an IC50 in test [1] of 0.21 nM. The compound also returned an EC50 in test [2] of 0.26 nM.
